Experimental data from patent US20090162848A1, “Noxin, a novel stress-induced gene involved in cell cycle and apoptosis” (COLD SPRING HARBOR LABORATORY, priority 2007, published 2009).

Columns and labels:
Format in all cases: cell-based, mouse
[1] = tested on: noxin mRNA; assay: Northern blot time course of noxin mRNA induction
Description: Total RNA was extracted from different adult mouse tissues and analyzed for noxin mRNA by Northern hybridization. Northern blot analysis was carried out as follows. Total RNA (10 μg) was separated by denaturing formaldehyde-agarose gel electrophoresis and transferred onto a nylon membrane (Hybond-N^+, Amersham). The membrane was pre-hybridized with hybridization buffer (0.05 M sodium phosphate buffer, 5×SSC, 4×Denhardt's solution, 1% SDS, 50% formamide, 0.1 mg/ml salmon sperm DNA, and 0.2 mg/ml yeast tRNA) for 6 h at 42° C. and hybridized with the same buffer containing 100,000 cpm/ml [α-^32P] dCTP-labeled noxin cDNA probe amplified by PCR from pFLAG-noxin. Following hybridization for 20 h at 42° C., the membrane was washed twice with 2×SSC for 5 min at room temperature, twice with 0.2×SSC for 5 min at 65° C. and twice with 1×SSC with 3% glycerol for 5 min at room temperature. The membrane was exposed for 3 days at −70° C. using X-OMAT X-ray film (Kodak).
Noxin was identified as an NO-inducible gene and the time course of its induction by the NO donor SNAP was determined. Noxin mRNA levels as determined by Northern blot started to increase 2 h after the addition of SNAP and reached maximal levels 8 h after the addition (FIG. 6A). The pattern of noxin induction by SNAP was similar to that of a p53-dependent gene mdm2. Results for β-actin are shown as a control.

[2] = tested on: noxin protein in NIH3T3 cells; assay: Western blot of endogenous noxin protein after stress stimuli; conditions: anti-noxin Western blot
Description: (§1) Western blot analysis. Cells or tissues were homogenized in the lysis buffer (10 mM Tris-HCl pH 7.5, 1 mM EDTA, 400 mM NaCl, 0.5% NP40, 5 mM NaF, 0.5 mM sodium orthovanadate, 10% glycerol, 1 mM dithiothreitol, 1 mM PMSF, 1 μg/ml aprotinin, 1 μg/ml leupeptin and 1 μg/ml pepstatin) for 20 min on ice. Following centrifugation, the soluble fraction was collected and protein concentration was determined using the BCA assay kit (Pierce). 50 μg of total protein was separated on an 8% SDS-PAGE gel and transferred to Immobilon-P membrane (Millipore Corporation) by semi-dry blotting. The membranes were incubated with anti-noxin antibody (see above) (1:1,000) followed by anti-mouse IgG or anti-rabbit IgG antibody conjugated to horseradish peroxidase (HRP) (1:10,000, Amersham). The HRP signal was detected using a chemi-luminescence detection kit (SuperSignal Femto Dura Extended Duration Substrate, Pierce) and Hyperfilm X-ray film (Amersham Biosciences).
Furthermore, in the SNAP-, cytokines-, γ-irradiation, and adriamycin-treated cells an additional band of 129 kD was evident.

[3] = tested on: MEFs from wild type and noxin-/- mice; assay: BrdU/PI flow cytometry of MEFs released from serum arrest, with SNAP
Description: Since noxin can induce cell cycle arrest and, in addition, respond to various types of stress stimuli, including NO, the growth characteristics of MEFs isolated from noxin^−/− animals or their wild type (noxin^+/+) littermates were compared. MEFs from wild type and noxin^−/− mice were arrested with low serum (0.1%) culture medium for 24 h and released by adding 10% serum. Cells were either left untreated or exposed to SNAP. At the time of release, BrdU was added to the culture medium and cells were further incubated for 4, 16, or 22 h (FIG. 17, indicated). Cells were collected, stained with PI and analyzed by flow cytometry for BrdU-positive cells (FIG. 17, X-axis: PI, Y-axis: BrdU) and for cell cycle distributions (FIG. 18, X-axis: PI and Y-axis: number of cells) (Fraction P3=G1, Fraction P4=S, Fraction P5=G2/M and Fraction P6=Sub-G1 populations). […]
The growth of noxin^−/− MEFs under normal conditions (FIG. 17g-i) and after addition of SNAP (FIGS. 17j-l) were similar to that of wild type MEFs (FIG. 17a-c and FIG. 17d-f). However, the fraction of sub-G1 cells was higher in noxin-deficient (noxin^−/−) cells (Fraction P6) at each time point analyzed than in wild type (noxin^+/+) MEFs (13.8, 16.3, and 11.5 vs. 9.7, 5.1, and 3.5%, respectively, FIG. 18 fraction P6).

[4] = tested on: noxin protein in NIH3T3 cells; assay: Subcellular localization of endogenous noxin by immunofluorescence; conditions: antibody against C-terminal region peptide
[5] = tested on: noxin mRNA in NIH3T3 cells; assay: Q-PCR of noxin mRNA in NIH3T3 cells exposed to stress stimuli; conditions: for induction of noxin mRNA: NIH3T3 cells exposed for 16 hours, Q-PCR
Description: The cDNA was diluted, mixed with 2×SYBR Green PCR Master Mix (Applied Biosystems) and 0.3 μM forward and reverse primers, and amplified using the ABI PRISM 7700 Sequence Detection System (Applied Biosystems). Primers (Sigma Genosys) for noxin and β-actin were designed using Primer Express software (Applied Biosystems) assuming the Tm value of 58-60° C. and the amplicon size of 70-150 bp:
The PCR conditions for the thermal cycler were as follows: denaturation (1 cycle at 95° C. for 10 min), amplification (40 cycles at 95° C. for 15 sec and 60° C. for 1 min). During the amplification, the fluorescence of each sample in the plate was detected in real time and an amplification curve was drawn by Sequence Detection System Software (Applied Biosystems) to get the threshold cycle Cτ, the cycle number at which the curve starts to rise over the background noise. The data from noxin amplifications were normalized using the Cτ value from the β-actin set for each sample and the relative difference in the amount of noxin RNA in untreated and in stress-exposed cells was calculated.
Noxin is induced not only by NO but also by other known stress stimuli. NIH3T3 cells were exposed for 16 hours to γ-irradiation (γ-IR), UV-irradiation (UV-IR), the chemotherapeutic agent adriamycin (ADR), hydrogen peroxide (H2O2), and a mixture of cytokines (TNF-α, IFN-γ, and IL-1β) which is known to be a potent inducer of reactive oxygen and nitrogen species.

[6] = tested on: noxin protein in NIH3T3 cells; assay: Western blot of noxin protein by cell cycle phase and cell cycle inhibitors
Description: as §1, with “The membranes were incubated with anti-noxin antibody (see above) (1:1,000) followed by anti-mouse IgG or anti-rabbit IgG antibody conjugated to horseradish peroxidase (HRP) (1:10,000, Amersham).” left out
The relationship between cell cycle and noxin expression was examined by determining the noxin mRNA levels in cells in various phases of the cell cycle using the methodology as follows: NIH3T3 cells, synchronized by serum starvation (DMEM with 0.5% serum for 24 h) were released from arrest by the addition of 10% serum (corresponds to the 0 h time point). […] Noxin mRNA expression was analyzed using Q-PCR 0, 4, 14, or 20 h after the addition of serum. The cell cycle phase of the cells was determined by flow cytometry in the following manner: […]

[7] = tested on: NIH3T3 cells; assay: DNA content (PI flow cytometry) of shRNA-transfected, nocodazole-treated NIH3T3 cells; conditions: for fraction of cells in the sub-G1 population: nocodazole for 20 h
Description: For this experiment, NIH3T3 cells were transfected with 1 μg (HPC) or 2 μg (2×HPC) of the HPC shRNA construct, treated with nocodazole for 20 h, collected, stained with PI, and analyzed for DNA content using flow cytometry. The downregulation of noxin using this shRNA construct decreased the fraction of cells in G2/M and increased the fraction of cells in the sub-G1 population: 5.7±0.4% in control cells vs. 7.8±1.3% in cells transfected with 1 μg of HPC, and 8.0±1.7% in cells transfected with 2 μg of HPC (FIG. 20B).

[8] = tested on: noxin; assay: Suppression of FLAG-noxin protein by shRNA constructs (co-transfection, Western blot); conditions: NIH3T3 cells co-transfected with shRNA, FLAG-noxin and luciferase
Source text: The role of noxin in normal cells was probed by down regulating its expression using the RNAi approach. Plasmids expressing six different noxin shRNA (FIG. 22, depicted as HPA-HPF) under control of the human U6 promoter were generated as described (Paddison et al., Proc Natl Acad Sci U.S.A. 99:1443-8 (2002)). The 6 hairpin structures correspond to the following noxin nucleotide positions: The target U6 promoter cassette DNA was amplified using a 5′-primer corresponding to the SP6 site at the 5′-end of the U6 promoter cassette and a long 3′ primer complementary to the 3′-end of the promoter and containing sequences for the noxin shRNA and a pol III termination site. The PCR fragments were subcloned into pENTR-TOPO-D vector (Invitrogen) and then transferred into pMSCV-puro vector by a clonase (Invitrogen) reaction. These six, short hairpin RNA (shRNA) constructs were generated and corresponded to different regions of noxin mRNA and their binding efficiency was compared by co-expressing them with recombinant noxin cDNA (FIG. 20A). To select shRNA constructs, six different shRNA constructs (HPA to HPF) were produced and examined for their ability to suppress the expression of noxin protein. […] After normalization, protein samples were analyzed for the expression of FLAG-noxin protein by Western blot.

[9] = tested on: NIH3T3 cells; assay: Nuclear morphology (Hoechst) of shRNA/YFP-actin co-transfected cells; conditions: co-transfected with YFP-actin, Hoechst stain
Source text: Panels 21A-D are images of cells that were co-transfected with the HPC or HPF shRNA constructs together with YFP-actin construct and stained with Hoechst. shRNA-transfected cells were identified by the YFP expression. […] The nuclei of cells transfected with HPF and YFP-actin or with YFP-actin alone and the nuclei of non-transfected cells had normal shape (light blue arrowheads). Scale bar: 10 μm.

[10] = tested on: NIH3T3 cells; assay: BrdU incorporation (DNA synthesis) in transfected versus untransfected NIH3T3 cells; conditions: BrdU labeling for 24 h
Description: In addition, constructs coding for cyan fluorescent protein with a nuclear localization signal (CFP-nuc), yellow fluorescent protein fused to actin (YFP-actin), or vector construct alone were used as controls. Cells were then labeled with BrdU for 24 h and analyzed cells in situ by immunocytochemistry for BrdU and noxin (or other listed proteins) (FIG. 11A-C). In the figures, signals from anti-FLAG antibodies are seen in red; anti-BrdU antibodies are green; Hoechst 33342 (blue) was used for nuclear counter-staining. […] Recombinant protein was detected on a Western blot using the anti-FLAG antibody.

CC(=O)NC(C(=O)O)C(C)(C)SN=O (racemic) [SNAP, S-nitroso-N-acetyl-D,L-penicillamine]
time after addition at which noxin mRNA levels started to increase [1]: 2 h
time after addition at which noxin mRNA reached maximal levels [1]: 8 h
additional noxin band of 129 kD [2]: evident
levels of the 125 kD noxin polypeptide [2]: specifically increased
decrease of the fraction of dividing cells ([3]; MEFs released from low serum arrest, BrdU): 95.5%
effect on sub-G1 fraction (Fraction P6) ([3]; noxin+/+ or noxin-/- MEFs): did not noticeably affect
localization of endogenous noxin protein after exposure [4]: predominantly nuclear localization

OO [H2O2, hydrogen peroxide]
induction of noxin mRNA [5]: strong induction
noxin mRNA level versus unstimulated cells ([5]; NIH3T3 cells, stress exposure): 13 fold
levels of the 125 kD noxin polypeptide [2]: specifically increased

COc1cccc2c1C(=O)c1c(O)c3c(c(O)c1C2=O)C[C@@](O)(C(=O)CO)C[C@@H]3O[C@H]1C[C@H](N)[C@H](O)[C@H](C)O1 [adriamycin]
induction of noxin mRNA [5]: strong induction
additional noxin band of 129 kD [2]: evident
levels of the 125 kD noxin polypeptide [2]: specifically increased

C[C@@]1(CO)[C@H](O)CC[C@@]2(C)[C@H]1CC[C@H]1C[C@@H]3C[C@@]12CC[C@]3(O)CO [aphidicolin]
Noxin levels in response to cell cycle inhibitors [6]: induced

COC(=O)Nc1nc2ccc(C(=O)c3cccs3)cc2[nH]1 [nocodazole]
Noxin levels in response to cell cycle inhibitors [6]: induced
cell cycle effect of nocodazole treatment ([7]; NIH3T3 cells, 20 h): accumulation of cells in the G2/M phase

HPC: noxin shRNA construct, nt 1163-1191 (SEQ ID NO: 16) (DNA GTTGTCATGAAAGTAGATTGTCTGACTCT)
inhibition of noxin (FLAG-noxin) expression [8]: strongest inhibition
fraction of cells in G2/M phase ([7]; nocodazole-treated NIH3T3 cells): decreased
fraction of cells in the sub-G1 population ([7]; transfected with 1 μg construct): 7.8±1.3%
fraction of cells in the sub-G1 population ([7]; transfected with 2 μg construct): 8.0±1.7%
nuclear / chromatin morphology of transfected cells [9]: condensed chromatin structures

HPF: noxin shRNA construct, nt 509-537 (SEQ ID NO: 19) (DNA AAACCCTGGACAGTGGTAGAACTCAGAGC)
inhibition of noxin (FLAG-noxin) expression [8]: no effect
nuclear / chromatin morphology of transfected cells [9]: normal shape

p21/WAF: cdk inhibitor p21/WAF expressed from transfected plasmid
fraction of BrdU-positive cells in transfected cells, % of the value for the untransfected cells [10]: 39%
